Converted amounts (≈) assume the structure as drawn.
Columns and labels:
HCT-116 = test: Antiproliferative activity against human HCT-116 cells assessed as reduction in cell viability incubated for 72 hrs by MTT assay; assay type: functional, cell-based; details: HCT-116, 72 h
MDA-MB-231 = test: Antiproliferative activity against human MDA-MB-231 cells assessed as reduction in cell viability incubated for 72 hrs by MTT assay; assay type: functional, cell-based; details: MDA-MB-231, 72 h
MCF7 = test: Antiproliferative activity against human MCF7 cells assessed as reduction in cell viability incubated for 72 hrs by MTT assay; assay type: functional, cell-based; details: MCF7, 72 h
SH-SY5Y [1] = test: Cytoprotective activity against OGD/R induced human SH-SY5Y cells assessed as assessed as cell survival rate at 10 uM measured after 8 hrs by MTT assay relative to control; assay type: functional
[2] = Solubility in water by HPLC analysis; assay type: physicochemical
Acetylcholinesterase [3] = molecular target: T1, Acetylcholinesterase (Homo sapiens, UniProt P22303); test: Inhibition of AChE (unknown origin) by Ellman's method
T1 sequence (P22303 whole entry): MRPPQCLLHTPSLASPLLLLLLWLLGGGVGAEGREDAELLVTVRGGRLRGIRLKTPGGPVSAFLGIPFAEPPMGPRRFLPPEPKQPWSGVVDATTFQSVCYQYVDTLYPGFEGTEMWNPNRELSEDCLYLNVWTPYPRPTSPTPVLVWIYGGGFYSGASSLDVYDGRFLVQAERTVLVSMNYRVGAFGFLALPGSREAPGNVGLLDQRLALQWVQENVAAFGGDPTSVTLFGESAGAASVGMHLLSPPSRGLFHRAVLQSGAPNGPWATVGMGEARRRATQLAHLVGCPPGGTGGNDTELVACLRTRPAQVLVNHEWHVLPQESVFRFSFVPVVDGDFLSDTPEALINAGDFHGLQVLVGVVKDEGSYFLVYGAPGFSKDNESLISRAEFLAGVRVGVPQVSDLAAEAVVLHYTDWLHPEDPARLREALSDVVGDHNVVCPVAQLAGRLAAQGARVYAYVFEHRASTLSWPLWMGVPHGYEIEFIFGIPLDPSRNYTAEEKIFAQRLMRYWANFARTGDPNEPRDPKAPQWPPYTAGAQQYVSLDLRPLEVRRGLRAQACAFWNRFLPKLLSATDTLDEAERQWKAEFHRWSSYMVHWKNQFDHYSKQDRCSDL

[4] = Inhibition of Lipoxygenase (unknown origin); set-up: species or system Homo sapiens
[5] = Solubility in water; assay type: physicochemical
[6] = molecular target: Aldo-keto reductase family 1 member B1 (Rattus norvegicus, UniProt P07943); test: Inhibition of rat lens aldose reductase
[7] = Inhibition of accumulation of sorbitol in human Red blood cells; assay type: functional, cell-based; details: erythrocyte
[8] = Cytoprotective activity against H2O2-induced oxidative stress in human HBMEC-2 cells assessed as increase in cell viability incubated for 24 hrs by MTT assay; assay type: functional, cell-based; details: HBMEC-2, 24 h
SH-SY5Y [9] = test: Cytoprotective activity against H2O2-induced oxidative stress in human SH-SY5Y cells assessed as increase in cell viability incubated for 24 hrs by MTT assay; assay type: functional, cell-based
A549 = test: cells; details: Homo sapiens
Description: Antiproliferative activity against human A549 cells assessed as reduction in cell viability by MTT assay

PC-12 = test: Cytoprotective activity against COCL2-induced cellular damage in rat PC12 cells assessed as reduction in cell viability incubated for 48 hrs by MTT assay; assay type: functional, cell-based; details: PC-12, 48 h
[10] = molecular target: T2, Prostaglandin G/H synthase 1 (Ovis aries, UniProt P05979); test: Inhibition of ovine COX-1 by EIA method
T2 sequence (P05979 whole entry): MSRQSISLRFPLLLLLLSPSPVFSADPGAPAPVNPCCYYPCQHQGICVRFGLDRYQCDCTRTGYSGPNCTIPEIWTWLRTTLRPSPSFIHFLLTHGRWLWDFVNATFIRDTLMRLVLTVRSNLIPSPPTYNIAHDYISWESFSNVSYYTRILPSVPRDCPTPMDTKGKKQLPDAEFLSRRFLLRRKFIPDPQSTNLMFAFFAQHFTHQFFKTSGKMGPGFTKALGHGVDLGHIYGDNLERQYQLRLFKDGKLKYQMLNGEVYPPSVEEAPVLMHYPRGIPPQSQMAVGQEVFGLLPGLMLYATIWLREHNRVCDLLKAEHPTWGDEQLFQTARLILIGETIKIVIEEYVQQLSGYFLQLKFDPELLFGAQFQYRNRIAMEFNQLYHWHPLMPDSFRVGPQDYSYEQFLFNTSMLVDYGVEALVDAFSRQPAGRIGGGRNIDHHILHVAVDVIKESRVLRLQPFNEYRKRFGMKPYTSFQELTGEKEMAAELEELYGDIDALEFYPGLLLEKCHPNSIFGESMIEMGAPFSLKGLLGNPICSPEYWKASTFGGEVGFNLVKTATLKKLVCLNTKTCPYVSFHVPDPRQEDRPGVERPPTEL

Acetylcholinesterase [11] = molecular target: T1, Acetylcholinesterase; test: Inhibition of AChE (unknown origin)
MDCK = test: Cytotoxicity against dog MDCK cells assessed as inhibition of cell growth at 10 uM relative to control; assay type: functional, Canis lupus familiaris; set-up: scale not given: the % may be the effect or the level left
HepG2 = test: Cytotoxicity against human HepG2 cells assessed as inhibition of cell growth at 10 uM incubated for 72 hrs by MTT assay relative to control; assay type: functional; set-up: scale not given: the % may be the effect or the level left
HUVEC = test: Protection against H2O2-induced oxidative stress in HUVEC cells; assay type: functional, cell-based; details: Homo sapiens

## Cc1nc(C)c(C(=O)NC2CCN(C(=O)C3=Cc4ccccc4S3(=O)=O)C2)nc1C (configuration not stated)
HCT-116
  IC50: > 10000 nM
MDA-MB-231
  IC50: > 10000 nM
MCF7
  IC50: > 10000 nM

## Cc1nc(C)c(CN2CCN(C(=O)C3=Cc4c(Cl)cccc4S3(=O)=O)CC2)nc1C
HCT-116
  IC50: 2670 nM
MDA-MB-231
  IC50: 2200 nM
MCF7
  IC50: 1500 nM

## CCCCC(OC(=O)CN1CCN(C)CC1)c1ccc(I)cc1C(=O)OCc1nc(C)c(C)nc1C (configuration not stated)
SH-SY5Y [1]
  Activity: 90%

## O=c1c(-c2ccc(O)cc2)coc2cc(O)cc(O)c12 [GENISTEIN]
[2]
  solubility: 0.029 µg/mL (≈ 0.107 µM)

## COc1cc(/C=C/C(=O)c2ccc(OCCN3CCCC3)cc2)ccc1OCc1nc(C)c(C)nc1C
Acetylcholinesterase [3]
  IC50: 980 nM

## Cc1nc(C)c(/C=C2\CN(C)C/C(=C\c3nc(C)c(C)nc3C)C2=O)nc1C
[4]
  IC50: 7500 nM

## C=CCC(CC=C)(OC(=O)[C@@H](Cc1ccc(OC(C)=O)c(OC(C)=O)c1)OC(=O)CN)c1nc(C)c(C)nc1C
[5]
  solubility: > 0.1 µg/mL

## O=C(/C=C/c1ccc(O)cc1)c1ccc(O)cc1O [ISOLIQUIRITIGENIN]
[6]
  IC50: 320 nM
[7]
  IC50: 2000 nM

## COc1cc(CNC(=O)c2ccc(O)c(O)c2)ccc1OCc1nc(C)c(C)nc1C
[8]
  EC50: 4150 nM

## CC(=O)Oc1ccc(C[C@@H](OC(C)=O)C(=O)OCc2nc(C)c(C)nc2C)cc1OC(C)=O
SH-SY5Y [9]
  EC50: 2560 nM

## COc1ccc(/C=C/C(=O)/C=C/c2nc(C)c(C)nc2C)cc1O
A549
  IC50: 2190 nM

## COc1cc(C(=O)Nc2cccc(N(C)C)c2)ccc1OCc1nc(C)c(C)nc1C
PC-12
  EC50: 17400 nM

## Cc1nc(C)c(COC(=O)/C=C/c2ccc(OCc3nc(C)c(C)nc3C)cc2)nc1C
PC-12
  EC50: 3680 nM

## COc1ccc(/C=C2\CN(C)C/C(=C\c3nc(C)c(C)nc3C)C2=O)c(Cl)c1
[10]
  IC50: 500 nM

## COC(=O)C1=CO[C@H](OC)[C@H]2C(CN3CCN(Cc4nc(C)c(C)nc4C)CC3)=CC[C@@H]12
Acetylcholinesterase [11]
  IC50: 218 nM

## C=C(C)[C@@H]1CC[C@]2(C(=O)OCc3nc(C)c(C)nc3C)CC[C@]3(C)[C@H](CC[C@@H]4[C@@]5(C)CC[C@H](O)C(C)(C)[C@@H]5CC[C@]43C)[C@@H]12
MDCK
  Activity: 26.5%
HepG2
  Activity: 99.87%

## Cc1nc(C)c(/C=C/c2nc(C)c(C)nc2C)nc1C
HUVEC
  EC50: 25600 nM

## O=[N+]([O-])c1ccc2c(c1)S(=O)(=O)C=C2
HCT-116
  IC50: 1710 nM
MDA-MB-231
  IC50: 3900 nM
MCF7
  IC50: 2080 nM

## Cc1nc(C)c(C(=O)NC2CCN(C(=O)C3=Cc4ccccc4S3(=O)=O)CC2)nc1C
HCT-116
  IC50: > 10000 nM
MDA-MB-231
  IC50: > 10000 nM
MCF7
  IC50: > 10000 nM

## Cc1nc(C)c(C(=O)N2CCN(C(=O)C3=Cc4c(Br)cccc4S3(=O)=O)CC2)nc1C
HCT-116
  IC50: 6440 nM
MDA-MB-231
  IC50: 4860 nM
MCF7
  IC50: 3290 nM

Source: ChEMBL document CHEMBL6114994, “Ligustrazine as a multitarget scaffold in drug design and discovery” (Bioorg Med Chem, 2025)
